Results published in patent publication EP1086692A2, “Estrogen agonists and antagonists for multiple indications” (priority 1999, dated 2001).
“And” between values parts separate entries of the source, which are not always exact repeats. Equal values may be shown once.

Key:
human plasma proteins [1] = assay: Binding of propranolol to human plasma proteins in the absence and presence of droloxifene or lasofoxifene (equilibrium dialysis, HPLC-MS); settings: result in words; droloxifene 200 ng/ml, lasofoxifene 50 ng/ml
Method: (§1) The effect of droloxifene or lasofoxifene on plasma protein binding was assessed at […] concentrations of 2 and 10 µg/ml and propranolol concentrations of 50 and 500 ng/ml. The concentrations of droloxifene and lasofoxifene used were 200 and 50 ng/ml respectively.

human plasma proteins [2] = assay: Binding of droloxifene and lasofoxifene to human plasma proteins; settings: binding of the SERM itself, human plasma
[3] = as above; settings: human, plasma
[4] = Binding of propranolol to human plasma proteins in the absence and presence of droloxifene or lasofoxifene (equilibrium dialysis, HPLC-MS); settings: human, plasma
Method: as §1

Compound	effect on the protein binding of propranolol in human plasma (human plasma proteins [1])	bound to human plasma proteins (human plasma proteins [2])	fraction unbound [3]	fraction unbound [4]
CC/C(=C(/c1ccc(OCCN(C)C)cc1)c1cccc(O)c1)c1ccccc1 [droloxifene]	will not be altered	99.997%	3e-05	
Oc1ccc2c(c1)CC[C@H](c1ccccc1)[C@@H]2c1ccc(OCCN2CCCC2)cc1 [lasofoxifene, (-) cis-6-phenyl-5[4-(2-pyrrolitin-1-yl-ehtoxy)-phenyl]-5,6,7,8-tetrahydronaphthalene-2-ol]	will not be altered	99.997% and 99.94%		
CC(C)NCC(O)COc1cccc2ccccc12 (stereo not drawn) [propranolol, reference compound]				0.24
